The text below walks through data of patent US10512266B2, “Herbicidal compositions based on 3-phenyluracils and N-[[4-[cyclopropylamino)-carbonyl]phenyl]sulfonyl]-2-methoxybenzamide” (BASF SE, priority 2005, dated 2019).

Holding throughout (details): safener II alone, 150 g/ha
One data set relates to TRZAS. The data set can be described thus: Greenhouse post-emergence test, damage to crop plant TRZAS. In kind it is in vivo, spring wheat. An excerpt:
(§1) For the post-emergence treatment, the test plants were first grown to a height of 3 to 20 cm, depending on the plant habit, and only then treated. Here, the herbicidal compositions were suspended or emulsified in water as distribution medium and sprayed using finely distributing nozzles. The respective component I was formulated as a 12% by weight strength emulsion concentrate, and component II as a 10% by weight suspension concentrate. Optionally components III can be used in their appropriate available formulation types. The components I, II and optionally III were introduced to the spray liquid with the amount of solvent system used for applying the active compound. The test period extended over 21 days. During this time, the plants were tended, and their response to the treatments with active compound was evaluated. The evaluation for the damage caused by the chemical compositions was carried out using a scale from 0 to 100%, compared to the untreated control plants. Here, 0 means no damage and 100 means complete destruction of the plants. […]

The test system of a further data set is HORVW. As to the kind of experiment: Greenhouse post-emergence test, damage to crop plant HORVW. It counts as in vivo, winter barley.
From the text: as §1

The test system of the next data set is ZEAMX. The data set can be described thus: Greenhouse post-emergence test, damage to crop plant ZEAMX. In kind it is in vivo, corn.
From the text: as §1

The subject of the next data set is POLCO. As to the kind of experiment: Greenhouse post-emergence test, herbicidal action against POLCO. It counts as in vivo, wild buckwheat. From the text: (§2) For the post-emergence treatment, the test plants were first grown to a height of 3 to 20 cm, depending on the plant habit, and only then treated. Here, the herbicidal compositions were suspended or emulsified in water as distribution medium and sprayed using finely distributing nozzles. The respective component I was formulated as a 12% by weight strength emulsion concentrate, and component II as a 10% by weight suspension concentrate. Optionally components III can be used in their appropriate available formulation types. The components I, II and optionally III were introduced to the spray liquid with the amount of solvent system used for applying the active compound. The test period extended over 21 days. During this time, the plants were tended, and their response to the treatments with active compound was evaluated. The evaluation for the damage caused by the chemical compositions was carried out using a scale from 0 to 100%, compared to the untreated control plants. Here, 0 means no damage and 100 means complete destruction of the plants. [table]

For a further data set, the system named is CHEAL. The data set can be described thus: Greenhouse post-emergence test, herbicidal action against CHEAL. It counts as in vivo, lambsquaters.
From the text: as §2

In the next data set the test system is ABUTH. The data set can be described thus: Greenhouse post-emergence test, herbicidal action against ABUTH. It counts as in vivo, velvetleaf.
From the text: as §2

The subject of the next data set is AMARE. The data set can be described thus: Greenhouse post-emergence test, herbicidal action against AMARE. In kind it is in vivo, common amaranth.
From the text: as §2

The structures appear in SMILES notation.

Regarding `COc1ccccc1C(=O)NS(=O)(=O)c1ccc(C(=O)NC2CC2)cc1` [II, N-[[4-[(cyclopropylamino)carbonyl]phenyl]sulfonyl]-2-methoxybenzamide], the “damaging effect on TRZAS” value with TRZAS is “has not shown damaging effect”. Further, the “damaging effect on HORVW” value in the data set on HORVW was “has not shown damaging effect”. For the same compound, in the data set with ZEAMX, the “damaging effect on ZEAMX” value is “has not shown damaging effect”. Moreover, the “herbicidal activity on POLCO” value in the data set on POLCO is recorded as “has not shown herbicidal activity”. Besides, the “herbicidal activity on CHEAL” value with CHEAL is listed as “has not shown herbicidal activity”. In the data set on ABUTH, the “herbicidal activity on ABUTH” value is on record as “has not shown herbicidal activity”. The “herbicidal activity on AMARE” value with AMARE is given as “has not shown herbicidal activity”.
